From patent publication US20120225093A1, “Abrogating HIV-1 Infection via Drug-Induced Reactivation of Apoptosis” (UNIVERSITY OF MEDICINE AND DENTISTRY OF NEW JERSEY, priority 2010, published 2012)

Columns and labels:
[1] = test system: bioavailable intracellular iron; experiment: IRE-controlled luciferase reporter in 293T cells; type: cell-based, human; conditions: 12 hr
Experimental: 293T cells (10^5 cells/well of 12-well microplates) were seeded and transfected 20 hr later with a firefly luciferase (Luc)-expressing reporter plasmid and corresponding Renilla luciferase (Ren)-expressing reference plasmid using TransFectin™ (Bio-Rad, Hercules, Calif.). The bioavailable intracellular iron concentration was monitored using plasmids obtained from B. Galy and M. W. Hentze (EMBL, Heidelberg). Plasmid pcFIF-Luc contains the mouse ferritin H 5′-UTR with an iron response element (IRE) controlling Luc; pcFIRo-Ren is a similar construct expressing a mutated non-functional IRE fused to Ren. The activity of the HIV-1 promoter was monitored using the pNL4-3-Luc E molecular clone (Chen et al. (1994) J Virol 68: 654-660.), based on the recombinant infectious proviral clone that contains DNA from HIV isolates NY5 (5′ half) and IIIB (3′ half). This plasmid, obtained from D. Baltimore (Caltech, Pasadena), contains the Luc gene in place of 102 nucleotides from nef and 6 nucleotides from env. pCMV-Ren (Promega, Madison, Wis.) was used as reference for pNL4-3-Luc E. Compounds were added at the time of transfection. Cells were harvested 12 hr later, washed with phosphate-buffered saline, and lysed for the dual luciferase assay (Dual Luciferase™ Reporter Assay System; Promega, Madison, Wis.). Luc data were normalized to the Ren internal controls (Hogue et al. (2009) Retrovirology 6: 90.).
Both CPX and DEF are hydroxypyridinones with vicinally positioned oxygen atoms that mediate bidentate interaction with metal ions, in particular Fe^3+ (FIG. 11A). To evaluate the effect of drugs on the intracellular iron pool and on HIV-1 gene expression, transient expression assays in human 293T cells were exploited. Bioavailable intracellular iron was measured using a construct in which an iron-responsive element (IRE) controls luciferase expression, and HIV-specific transcription was assayed in parallel using an HIV-1 molecular clone that expresses luciferase reporter under the direction of the retroviral promoter. CPX and DEF were compared with the medicinal chelator deferoxamine (DFOX) and with the CPX fragment Agent P2, which consists of the metal-binding 1,2-HOPO domain of CPX but lacks the cyclohexyl moiety (FIG. 11A).

eIF5A = eIF5A maturation in 293T cells, immunoblot with NIH-353 antibody; type: cell-based, human; conditions: for concentration range reducing appearance of mature eIF5A: 293T transfected with FLAG-eIF5A, 24 hr
Experimental: Rabbit NIH-353 antibody was raised against mature human eIF5A (Cracchiolo et al. Gynecol Oncol 2004, 94:217-222). Antibody against DOHH was generated by M. H. Park. Anti-eIF5A-1 monoclonal antibody (BD) was purchased from BD Biosciences. The anti-FLAG monoclonal antibody M2 and anti-actin antibody were purchased from Sigma.
Immunoprecipitation and immunoblotting experiments were carried out as described previously in Hoque et al. Mol Cell Biol 2003, 23:1688-1702.
To examine the effect of the drugs on the synthesis of modified eIF5A, 293T cells transfected with a FLAG-tagged eIF5A expression vector were simultaneously treated with CPX or DEF. FLAG-eIF5A was monitored using NIH-353 and anti-FLAG antibodies (FIG. 2A,B). The NIH-353 antibody reacts preferentially with post-translationally modified eIF5A. CPX reduced the appearance of mature eIF5A over the 3-30 μM concentration range, while DEF was effective at 200-400 μM. […] In addition to the CPX homolog Agent P2, deferoxamine (DFOX; Desferal™) was used as a control compound.

Row | SMILES | reduction of intracellular iron (IRE-dependent luciferase) ([1]; DFOX 15 μM) | effect on appearance of mature FLAG-eIF5A (eIF5A; 293T, control compounds) | reduction of intracellular iron (IRE-dependent luciferase) [1] [%] | concentration range reducing appearance of mature eIF5A (eIF5A) [µM]
1 | Cc1ccn(O)c(=O)c1 [Agent P2, 1-hydroxy-4-methylpyridin-2[1H]-one] | no effect on either IRE-dependent or HIV-encoded luciferase expression | little or no effect | – | –
2 | Cc1cc(C2CCCCC2)n(O)c(=O)c1 [CPX, 6-cyclohexyl-1-hydroxy-4-methylpyridin-2[1H]-one] | – | – | 80 | 3 to 30
3 | Cc1c(O)c(=O)ccn1C [DEF, 3-hydroxy-1,2-dimethylpyridin-4(1H)-one] | – | – | ~60 | 200 to 400
